Reference: PubChem BioAssay (NCI)
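Each compound was tested at five concentrations against cells in 96-well plates for 48 hours. TGI: concentration producing complete growth inhibition.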

What was measured:
Experiment in all cases: NCI anticancer screen, dose series, 48 h
[1] = test system: CCRF-CEM leukemia
[2] = test system: K-562 leukemia
[3] = test system: KM12 colon
[4] = test system: MDA-MB-435
[5] = test system: MOLT-4 leukemia
[6] = test system: OVCAR-3 ovarian
[7] = test system: OVCAR-5 ovarian
[8] = test system: SF-268 CNS
[9] = test system: SF-539 CNS
[10] = test system: SN12C renal
[11] = test system: SNB-19 CNS
[12] = test system: TK-10 renal
[13] = test system: UO-31 renal

Row | Structure (SMILES) | TGI [1] [µM] | TGI [2] [µM] | TGI [3] [µM] | TGI [4] [µM] | TGI [5] [µM] | TGI [6] [µM] | TGI [7] [µM] | TGI [8] [µM] | TGI [9] [µM] | TGI [10] [µM] | TGI [11] [µM] | TGI [12] [µM] | TGI [13] [µM]
1 | O=C(NCCCN1CCN(CCCNC(=O)c2cc(-c3ccccc3)nc3ccccc23)CC1)c1cc(-c2ccccc2)nc2ccccc12 | > 56.4 | 34.2 | > 58.2 | 14.7 | > 66.1 | > 53.6 | > 78.2 | > 60.2 | 41.5 | 43 | 33 | 60.2 | > 42.2
2 | Cc1c2c(n3c(nc4ccccc43)c1C#N)NCC2 | > 10 | > 10 | > 10 | > 10 | > 10 | > 10 | > 10 | > 10 | > 10 | > 10 | > 10 | > 10 | > 10
3 | O=C(/C=C/c1ccc(O)c(O)c1)c1ccc(O)cc1O | > 71.7 | 25.4 | 24.3 | 29.1 | 55.9 | 37.4 | 32.8 | 37.6 | 25.8 | 43.9 | 43.9 | 60.3 | 30.3
4 | Cc1cc(S(=O)(=O)Nc2nnc3c(Cl)cc(C(F)(F)F)cn23)c(S)cc1Cl | > 100 | > 100 | > 100 | > 100 | > 100 | > 100 | > 100 | > 100 | > 100 | > 100 | > 91.4 | > 100 | > 100
5 | O=C(O)c1ccc(Nc2nc3ccc(C(F)(F)F)cc3nc2C(=O)O)cc1 | > 100 | > 100 | > 100 | > 100 | > 100 | > 100 | > 100 | > 100 | > 100 | > 100 | > 100 | > 100 | > 100
6 | COc1ccccc1/C=C1\CCC(CN2CCOCC2)C1=O (configuration not stated) | > 21.3 | 10.3 | 14.5 | 20.4 | 14.2 | 15.2 | 33.7 | 41.7 | 28.6 | 16.2 | 22.6 | 12.5 | 31.4
7 | C[C@@]12C[C@@H](c3ccccc3O1)N1CCCSC1=N2 | > 100 | > 100 | > 100 | > 100 | > 100 | > 100 | > 100 | > 100 | > 100 | > 100 | > 100 | > 100 | > 100
8 | O=C(OCC1CC(C2(O)CCCCC2)C(=O)O1)c1ccccc1 (configuration not stated) | > 100 | > 100 | > 100 | > 100 | > 100 | > 100 | > 100 | > 100 | > 100 | > 100 | > 100 | > 100 | > 100
9 | CCOC(=O)Cc1ccc(Nc2nc3cc(F)c(F)cc3nc2C(=O)OCC)cc1 | > 100 | > 100 | > 100 | > 100 | > 100 | > 100 | > 100 | > 100 | > 100 | > 100 | > 100 | > 100 | 3.15
10 | CCOC(=O)c1c(Br)c(-c2ccc([N+](=O)[O-])cc2)c(Br)n1C | > 10 | > 10 | > 10 | > 10 | > 10 | > 10 | > 10 | > 10 | > 10 | > 10 | > 10 | > 10 | > 10
11 | CCN(CC)CCC(=O)Nc1ccc2sc3ccccc3c(=O)c2n1 | 75.6 | 41.4 | 32.1 | 26.4 | > 100 | 43.2 | 42.5 | 48.5 | 33.4 | 77.8 | 53.1 | 57.5 | 22.2
12 | O=C(O)c1ccccc1/C=N\N(CCO)C1=NCCN1 | > 100 | > 100 | > 100 | > 100 | > 100 | > 100 | > 100 | > 100 | > 100 | > 100 | > 100 | > 100 | > 100
13 | CC(C)C1CCC(=O)CC1CCCCC1CC(=O)CC1O[Si](C)(C)C(C)(C)C (configuration not stated) | > 22.2 | > 34.9 | 7.93 | 10.9 | 5.5 | > 47.5 | 26.2 | 7.74 | 24.8 | 22.3 | 13.2 | 23.4 | 20.2
14 | O=C(O)c1ccc(Nc2nc3ccc(C(F)(F)F)cc3nc2-c2ccccc2)cc1 | > 100 | > 100 | > 10 | > 100 | > 100 | 72.6 | > 100 | > 100 | 90.8 | > 100 | > 100 | 52.4 | 55.1
15 | COc1c(N2CCCCC2)c2c(=O)c3ccccc3oc2c2c3ccccc3n(C)c12 | > 100 | > 100 | > 100 | > 100 | > 100 | > 100 | > 100 | > 100 | > 100 | > 100 | > 100 | > 100 | > 100
16 | CC(=O)O[C@H]1C(=O)[C@@]2(C)[C@H]([C@H](OC(=O)c3ccccc3)[C@]3(O)C[C@H](OC(=O)[C@H](O)[C@@H](NC(=O)OC(C)(C)C)c4ccco4)C(C)=C1C3(C)C)[C@]1(OC(C)=O)CO[C@@H]1C[C@@H]2O | 35.7 | 13.4 | > 50 | 2.27 | 25.9 | 0.0471 | 9.96 | > 50 | 0.0138 | 36.3 | > 50 | 29 | > 34.9
17 | CC(C)(CN1CCCCC1)C(=O)CC(SCCS(=O)(=O)O)c1ccccc1 (configuration not stated) | 32.1 | 29.6 | 44.8 | 29.3 | 36.1 | 29.8 | 27 | 65.8 | 60.3 | 58.6 | 54.2 | 38.1 | 25.1
18 | COc1ccc(C(SCCO)(c2ccc(OC)cc2)c2ccc(OC)cc2)cc1 | 66 | 28.4 | 71.1 | 23.5 | 56.4 | 28.4 | 79.7 | 43.9 | 30.6 | 33.9 | > 100 | 55 | 34.4
19 | COc1ccc2nc3c([N+](=O)[O-])ccc4c3c(c2c1)N=CN4CCN(C)C | 9.76 | 2.94 | 15.6 | 25.9 | 6.73 | 17 | 23.3 | 19.6 | 15.8 | 12.5 | 28 | 21.1 | 11.6
20 | CCOC(=O)C(CCSC)(CCSC)C(=O)OCC | > 100 | > 100 | > 100 | > 100 | > 100 | > 100 | > 100 | > 100 | > 100 | > 100 | > 100 | > 100 | > 100
21 | O=C1/C(=C/c2cccc([N+](=O)[O-])c2)Cc2ccccc21 | > 100 | > 100 | > 100 | > 100 | > 100 | > 100 | > 100 | > 100 | > 100 | > 100 | > 100 | > 100 | > 100
22 | S=C1C(CCCOCc2ccccc2)C2CCCC23CC2(CCN13)OCCS2 (configuration not stated) | > 10 | > 10 | > 10 | > 10 | > 10 | > 10 | > 10 | > 10 | > 10 | > 10 | > 10 | > 10 | > 10
23 | CC(=O)OC1CC2C(=O)CC1(C)C2(C)C (configuration not stated) | > 100 | > 100 | > 100 | > 100 | > 100 | > 100 | > 100 | > 100 | > 100 | > 100 | > 100 | > 100 | > 100
24 | Cn1c2ccccc2c(=NNc2ccc(S(=O)(=O)N=C(N)N)cc2)c2ccccc21 | 31.9 | 18 | 20.6 | 23.7 | 13.4 | 23 | 20.2 | 22.1 | 27.3 | 21.9 | 22.6 | 26.5 | 22
